Test results as given in patent publication US10406246B2, “Double-labeled probe for molecular imaging and use thereof” (DEUTSCHES KREBSFORSCHUNGSZENTRUM, priority 2013, dated 2019).

Key:
PSMA = target: T1, PSMA (Homo sapiens, UniProt Q04609); assay: in vitro competitive cell binding assay on LNCaP cells against 68Ga-labeled [Glu-urea-Lys(Ahx)]2-HBED-CC; settings: 12 concentrations of analyte 0-5000 nM, mean of three experiments
T1 construct: host or cells: LNCaP cells
Method: (§1) The competitive cell binding assay and internalization experiments were performed as described previously (Eder et al. 2012). Briefly, the respective cells (10^5 per well) were incubated with the radiometal (^68Ga-labeled [Glu-urea-Lys(Ahx)]2-HBED-CC (Schafer et al. 2012)) in the presence of 12 different concentrations of analyte (0-5000 nM, 100 μL/well). After incubation, washing was carried out using a multiscreen vacuum manifold (Millipore, Billerica, Mass.). Cell-bound radioactivity was measured using a gamma counter (Packard Cobra II, GMI, Minnesota, USA). The 50% inhibitory concentration (IC50) was calculated by fitting the data using a nonlinear regression algorithm (GraphPad Software). Experiments were performed three times.
as §1, with “al.,” for “al.”, “radioligand” for “radiometal”, “(Schäfer” for “(Schafer”, “The 50% inhibitory concentration (IC50) was calculated by fitting the data using a nonlinear regression algorithm (GraphPad Software). Experiments were performed three times.” left out

[1] = system: PSMA positive LNCaP tumors; assay: organ distribution in LNCaP tumor bearing xenografts; assay type: in vivo, BALB/c nu/nu mice; settings: 68Ga-labeled, 1 h post injection; for Organ distribution, Blood, Mean / Organ distribution, Brain, Mean / Organ distribution, Heart, Mean / Organ distribution, Intestine, Mean / Organ distribution, Kidney, Mean / Organ distribution, Liver, Mean / Organ distribution, Lung, Mean / Organ distribution, Muscle, Mean / Organ distribution, Spleen, Mean / Organ distribution, Tumor (tumor uptake), Mean: 0.06 nmol, tail vein, n=3; for distribution profile in healthy organs: both compounds compared with each other; for Organ distribution, Tumor (tumor uptake), Mean: PSMA positive LNCaP tumors
Method: 7- to 8-week-old male BALB/c nu/nu mice (Charles River Laboratories) were subcutaneously inoculated into the right trunk with 5×10^6 cells of LNCaP (in 50% Matrigel; Becton Dickinson, Heidelberg, Germany). The tumors were allowed to grow until approximately 1 cm^3 in size. The radiolabeled compounds were injected into the tail vein (approx. 1 MBq per mouse; 0.06 nmol). At 1 h after injection the animals were sacrificed. Organs of interest were dissected, blotted dry, and weighed. The radioactivity was measured using a gamma counter and calculated as % ID/g.

LNCaP tumor [2] = assay: comparative PET imaging of 68Ga-labeled PSMA-HBED-CC conjugates; assay type: in vivo; settings: 1 hour post injection, LNCaP tumor-bearing nude mice
Method: The ^68Ga-labeled compounds PSMA-HBED-CC-FITC (the compound depicted above), PSMA-Ahx-HBED-CC-cyanine 5.5 (the compound depicted above, of which the mass was determined by mass spectrometry as being M(calculated)=1642.98; M(found)=1642.7) and PSMA-Ahx-HBED-CC (the corresponding compound without cyanine 5.5) and were injected into an LNCaP tumor-bearing nude mice. One hour post injection, […] was performed.

LNCaP cells = assay: specific cell uptake, cell surface binding and internalization; assay type: cell-based, human; settings: 68Ga-labeled
Method: To determine the specific cell uptake and internalization, 10^5 cells were seeded in poly-L-lysine coated 24-well cell culture plates 24 h before incubation. After washing, the cells were incubated with 25 nM of the radiolabeled compounds for 45 min at 37° C. and at 4° C., respectively. Specific cellular uptake was determined by competitive blocking with 2-(phosphonomethyl)pentanedioic acid (500 μM final concentration, PMPA, Axxora, Loerrach, Germany). Cellular uptake was terminated by washing 4 times with 1 mL of ice-cold PBS. Cells were subsequently incubated twice with 0.5 mL glycine-HCl in PBS (50 mM, pH=2.8) for 5 min to remove the surface-bound fraction. The cells were washed with 1 mL of ice-cold PBS and lysed using 0.3 N NaOH (0.5 mL). The surface-bound and the internalized fractions were measured in a gamma counter. The cell uptake was calculated as percent of the initially added radioactivity bound to 10^6 cells [% ID/10^6 cells].

LNCaP tumor [3] = assay: comparative organ distribution versus Banerjee reference compounds; assay type: in vivo; settings: 1 hour post injection, LNCaP tumor-bearing nude mice
Method: PSMA-Ahx-HBED-CC-FITC (as shown above) was compared with a reference compound published by Banerjee et al. (Banerjee et al., 2011, Angew Chem Int Ed Engl. 50(39):9167-9170, page 6, scheme 1, final product) and the corresponding compound without the fluorescent dye IRDye800CW bearing a free amino group of the lysyl moiety the dye IRDye800CW can be bound to. These compounds were injected into LNCaP tumor-bearing nude mice.

T1 sequence (Q04609 whole entry): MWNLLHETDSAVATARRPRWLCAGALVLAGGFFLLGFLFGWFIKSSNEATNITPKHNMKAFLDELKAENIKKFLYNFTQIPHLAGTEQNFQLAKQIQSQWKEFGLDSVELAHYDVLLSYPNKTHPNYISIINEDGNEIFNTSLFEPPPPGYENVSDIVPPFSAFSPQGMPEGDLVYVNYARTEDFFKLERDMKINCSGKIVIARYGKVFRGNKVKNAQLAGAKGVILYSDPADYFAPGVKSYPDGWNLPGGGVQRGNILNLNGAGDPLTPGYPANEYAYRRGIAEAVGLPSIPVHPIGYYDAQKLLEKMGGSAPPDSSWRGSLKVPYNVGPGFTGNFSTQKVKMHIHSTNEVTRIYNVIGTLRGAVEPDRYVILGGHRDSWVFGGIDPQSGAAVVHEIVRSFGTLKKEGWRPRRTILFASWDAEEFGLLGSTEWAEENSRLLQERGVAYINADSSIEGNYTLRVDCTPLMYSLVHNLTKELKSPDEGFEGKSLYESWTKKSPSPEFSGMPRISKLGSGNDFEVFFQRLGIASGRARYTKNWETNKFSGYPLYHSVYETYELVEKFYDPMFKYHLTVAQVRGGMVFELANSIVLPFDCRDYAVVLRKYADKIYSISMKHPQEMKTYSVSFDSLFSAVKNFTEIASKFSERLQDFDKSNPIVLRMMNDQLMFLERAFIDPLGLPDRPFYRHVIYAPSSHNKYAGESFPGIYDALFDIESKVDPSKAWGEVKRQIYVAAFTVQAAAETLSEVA

Row | SMILES | IC50 (PSMA) | Organ distribution, Blood, Mean [1] | Organ distribution, Brain, Mean [1] | Organ distribution, Heart, Mean [1] | Organ distribution, Intestine, Mean [1] | Organ distribution, Kidney, Mean [1] | Organ distribution, Liver, Mean [1] | Organ distribution, Lung, Mean [1] | Organ distribution, Muscle, Mean [1] | Organ distribution, Spleen, Mean [1] | distribution profile in healthy organs [1] | Organ distribution, Tumor (tumor uptake), Mean [1] | Organ distribution, Tumor (tumor uptake), Mean ([1]; listed as Glu-urea-Lys-HBED-CC) | distribution of radioactivity and tumor uptake (PET imaging) (LNCaP tumor [2]) | internalization by LNCaP cells (LNCaP cells; 25 nM, 45 min, competitive blocking with 500 μM 2-PMPA (P<0.001)) | cell uptake and internalization profile versus Glu-urea-Lys-HBED-CC (LNCaP cells; LNCaP cells) | Organ distribution, Tumor (tumor uptake), Mean ([1]; listed as Glu-urea-Lys-HBED-CC-dye) | tumor uptake versus Banerjee reference compounds (LNCaP tumor [3])
1 | O=C(O)CCc1ccc(O)c(CN(CCN(CC(=O)O)Cc2cc(CCC(=O)NCCCCCC(=O)NCCCC[C@H](NC(=O)N[C@@H](CCC(=O)O)C(=O)O)C(=O)O)ccc2O)CC(=O)O)c1 [Glu-urea-Lys(Ahx)-HBED-CC, reference compound] | 9.82 ± 1.26 nM | 0.53 % ID/g | 0.40 % ID/g | 0.83 % ID/g | 1.14 % ID/g | 139.44 % ID/g | 1.43 % ID/g | 2.36 % ID/g | 1.00 % ID/g | 17.88 % ID/g | comparable | 4.89±1.34 % ID/g | 4.89 % ID/g | comparable distribution of radioactivity and tumor uptake | – | – | – | –
2 | O=C(O)CCC(NC(=O)NC(CCCCNC(=O)CCc1ccc(O)c(CN(CCN(CC(=O)O)Cc2cc(CCC(=O)NCCOCCOCCNC(=S)Nc3ccc4c(c3)C(=O)OC43c4ccc(O)cc4Oc4cc(O)ccc43)ccc2O)CC(=O)O)c1)C(=O)O)C(=O)O (centres unmarked) [Glu-urea-Lys-HBED-CC-Fluorescein] | 11.1 ± 1.16 nM | 1.34 % ID/g | 0.31 % ID/g | 2.22 % ID/g | 0.81 % ID/g | 138.18 % ID/g | 1.71 % ID/g | 3.09 % ID/g | 1.84 % ID/g | 45.24 % ID/g | comparable | 10.86±0.94 % ID/g | – | comparable distribution of radioactivity and tumor uptake | specifically internalized | not considerably changed | 10.86 % ID/g | –
3 | O=C(O)CCC(NC(=O)NC(CCCCNC(=O)CCCCCNC(=O)CCc1ccc(O)c(CN(CCN(CC(=O)O)Cc2cc(CCC(=O)NCCOCCOCCNC(=S)Nc3ccc4c(c3)C(=O)OC43c4ccc(O)cc4OC4C=C(O)C=CC43)ccc2O)CC(=O)O)c1)C(=O)O)C(=O)O (centres unmarked) [PSMA-Ahx-HBED-CC-FITC] | – | – | – | – | – | – | – | – | – | – | – | – | – | – | – | – | – | significantly improved
4 | CN1/C(=C/C=C/C=C/C2=[N+](CCCCCC(=O)NCCOCCOCCNC(=O)CCc3ccc(O)c(CN(CCN(CC(=O)O)Cc4cc(CCC(=O)NCCCCCC(=O)NCCCCC(NC(=O)NC(CCC(=O)O)C(=O)O)C(=O)O)ccc4O)CC(=O)O)c3)c3ccc4ccccc4c3C2(C)C)C(C)(C)c2c1ccc1ccccc21 (centres unmarked) [PSMA-Ahx-HBED-CC-cyanine 5.5] | – | – | – | – | – | – | – | – | – | – | – | – | – | comparable distribution of radioactivity and tumor uptake | – | – | – | –
